Experimental findings from patent publication US9682141B2, “Combination of kinase inhibitors and uses thereof” (INTELLIKINE LLC, priority 2011, dated 2017) are described below.

Each structure is given as a SMILES string.

Broadly, the IC50 is the point on the concentration scale where inhibition reaches its midpoint.

Assay type in all cases: biochemical
Test [1] concerns the target PI3K β (Homo sapiens (Human), UniProt P42338). As to the kind of experiment: PI 3-Kinase (human) HTRF assay, p110β/p85α.
Test [2] concerns the target PI3K γ (Homo sapiens (Human), UniProt P48736). As to the kind of experiment: PI 3-Kinase (human) HTRF assay, p110γ. The following applies: read-out: PI3K γ IC50. A general note: In TR-FRET formats the signal depends on donor and acceptor labels being close together.
Test [3] concerns the target PI3K α (Homo sapiens (Human), UniProt P42336). As to the kind of experiment: PI 3-Kinase (human) HTRF assay, p110α/p85α.
Test [4] has as its target PI3K δ (Homo sapiens (Human), UniProt O00329). As to the kind of experiment: PI 3-Kinase (human) HTRF assay, p110δ/p85α.

Chain of PI3K β (P42338 whole entry): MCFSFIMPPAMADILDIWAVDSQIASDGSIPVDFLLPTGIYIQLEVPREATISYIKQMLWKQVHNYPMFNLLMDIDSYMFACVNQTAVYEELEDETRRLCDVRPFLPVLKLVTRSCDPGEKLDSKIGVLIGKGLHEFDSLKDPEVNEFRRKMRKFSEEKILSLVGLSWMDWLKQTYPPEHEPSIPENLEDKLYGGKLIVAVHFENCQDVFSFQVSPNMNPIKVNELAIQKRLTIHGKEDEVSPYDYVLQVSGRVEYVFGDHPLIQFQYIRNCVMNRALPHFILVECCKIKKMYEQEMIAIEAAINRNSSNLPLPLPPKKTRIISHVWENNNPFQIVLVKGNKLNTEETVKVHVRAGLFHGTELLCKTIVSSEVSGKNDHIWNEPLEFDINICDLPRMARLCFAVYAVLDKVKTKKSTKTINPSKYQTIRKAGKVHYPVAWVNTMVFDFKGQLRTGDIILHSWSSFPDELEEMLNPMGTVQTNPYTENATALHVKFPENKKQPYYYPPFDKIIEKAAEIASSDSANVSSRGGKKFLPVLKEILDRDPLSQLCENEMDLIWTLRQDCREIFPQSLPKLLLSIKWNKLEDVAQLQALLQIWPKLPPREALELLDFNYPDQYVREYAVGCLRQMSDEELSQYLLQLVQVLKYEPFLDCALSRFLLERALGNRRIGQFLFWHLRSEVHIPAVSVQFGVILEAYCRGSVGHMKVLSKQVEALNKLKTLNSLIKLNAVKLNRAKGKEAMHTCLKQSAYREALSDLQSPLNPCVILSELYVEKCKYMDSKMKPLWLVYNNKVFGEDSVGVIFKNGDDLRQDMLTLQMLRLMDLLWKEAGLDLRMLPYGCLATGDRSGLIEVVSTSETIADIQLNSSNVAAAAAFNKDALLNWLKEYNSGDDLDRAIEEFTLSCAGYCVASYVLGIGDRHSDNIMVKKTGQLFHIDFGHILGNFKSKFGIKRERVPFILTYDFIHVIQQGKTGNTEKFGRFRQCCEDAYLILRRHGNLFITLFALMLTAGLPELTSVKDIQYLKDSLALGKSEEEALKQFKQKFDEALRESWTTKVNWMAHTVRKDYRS
Chain of PI3K β (P27986 whole entry partner): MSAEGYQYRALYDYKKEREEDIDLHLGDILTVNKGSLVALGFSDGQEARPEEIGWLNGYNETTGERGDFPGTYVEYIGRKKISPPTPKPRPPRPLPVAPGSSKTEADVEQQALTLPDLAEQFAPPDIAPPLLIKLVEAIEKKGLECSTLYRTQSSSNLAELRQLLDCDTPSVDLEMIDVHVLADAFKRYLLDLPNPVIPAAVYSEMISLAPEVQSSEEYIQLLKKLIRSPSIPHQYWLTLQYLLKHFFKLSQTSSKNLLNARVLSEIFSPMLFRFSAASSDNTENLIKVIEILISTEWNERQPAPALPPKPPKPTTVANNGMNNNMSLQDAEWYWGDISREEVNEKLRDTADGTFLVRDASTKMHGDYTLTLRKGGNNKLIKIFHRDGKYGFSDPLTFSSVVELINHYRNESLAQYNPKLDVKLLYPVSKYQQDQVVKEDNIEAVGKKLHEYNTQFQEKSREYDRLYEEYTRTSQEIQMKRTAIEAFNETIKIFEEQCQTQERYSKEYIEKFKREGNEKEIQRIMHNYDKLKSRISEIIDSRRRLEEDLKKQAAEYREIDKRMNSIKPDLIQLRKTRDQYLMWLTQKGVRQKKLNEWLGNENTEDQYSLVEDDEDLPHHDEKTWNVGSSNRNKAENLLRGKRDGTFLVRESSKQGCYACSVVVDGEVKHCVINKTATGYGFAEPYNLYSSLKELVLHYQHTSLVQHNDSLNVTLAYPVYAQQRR
Chain of PI3K δ (O00329 whole entry): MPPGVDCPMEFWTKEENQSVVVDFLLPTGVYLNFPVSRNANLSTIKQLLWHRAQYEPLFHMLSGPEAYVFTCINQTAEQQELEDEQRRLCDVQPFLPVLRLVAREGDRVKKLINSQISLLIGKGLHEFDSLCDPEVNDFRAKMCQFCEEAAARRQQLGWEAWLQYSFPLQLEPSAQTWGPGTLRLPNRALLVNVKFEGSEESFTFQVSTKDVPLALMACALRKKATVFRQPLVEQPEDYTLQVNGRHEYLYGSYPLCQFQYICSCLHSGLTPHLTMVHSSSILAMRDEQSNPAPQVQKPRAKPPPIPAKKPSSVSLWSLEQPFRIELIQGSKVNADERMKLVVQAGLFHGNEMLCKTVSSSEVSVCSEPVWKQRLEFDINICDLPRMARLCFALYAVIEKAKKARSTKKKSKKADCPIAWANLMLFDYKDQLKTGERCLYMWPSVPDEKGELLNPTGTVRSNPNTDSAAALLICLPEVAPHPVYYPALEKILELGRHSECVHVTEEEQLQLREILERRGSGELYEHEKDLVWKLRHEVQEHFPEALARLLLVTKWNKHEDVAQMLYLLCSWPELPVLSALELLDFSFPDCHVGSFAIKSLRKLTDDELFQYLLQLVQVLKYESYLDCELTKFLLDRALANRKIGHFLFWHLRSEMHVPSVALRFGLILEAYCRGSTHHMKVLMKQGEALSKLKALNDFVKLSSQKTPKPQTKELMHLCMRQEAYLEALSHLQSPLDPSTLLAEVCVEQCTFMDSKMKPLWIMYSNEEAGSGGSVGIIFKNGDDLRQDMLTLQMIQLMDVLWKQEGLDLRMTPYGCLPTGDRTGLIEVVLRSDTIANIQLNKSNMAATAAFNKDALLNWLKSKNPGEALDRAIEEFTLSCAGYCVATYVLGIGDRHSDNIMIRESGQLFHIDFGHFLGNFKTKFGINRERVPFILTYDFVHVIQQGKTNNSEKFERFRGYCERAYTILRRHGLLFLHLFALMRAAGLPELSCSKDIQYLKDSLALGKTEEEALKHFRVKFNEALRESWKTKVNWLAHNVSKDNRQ
Chain of PI3K δ (P27986 whole entry partner): as the sequence (P27986 whole entry partner) above
Chain of PI3K α (P42336 whole entry): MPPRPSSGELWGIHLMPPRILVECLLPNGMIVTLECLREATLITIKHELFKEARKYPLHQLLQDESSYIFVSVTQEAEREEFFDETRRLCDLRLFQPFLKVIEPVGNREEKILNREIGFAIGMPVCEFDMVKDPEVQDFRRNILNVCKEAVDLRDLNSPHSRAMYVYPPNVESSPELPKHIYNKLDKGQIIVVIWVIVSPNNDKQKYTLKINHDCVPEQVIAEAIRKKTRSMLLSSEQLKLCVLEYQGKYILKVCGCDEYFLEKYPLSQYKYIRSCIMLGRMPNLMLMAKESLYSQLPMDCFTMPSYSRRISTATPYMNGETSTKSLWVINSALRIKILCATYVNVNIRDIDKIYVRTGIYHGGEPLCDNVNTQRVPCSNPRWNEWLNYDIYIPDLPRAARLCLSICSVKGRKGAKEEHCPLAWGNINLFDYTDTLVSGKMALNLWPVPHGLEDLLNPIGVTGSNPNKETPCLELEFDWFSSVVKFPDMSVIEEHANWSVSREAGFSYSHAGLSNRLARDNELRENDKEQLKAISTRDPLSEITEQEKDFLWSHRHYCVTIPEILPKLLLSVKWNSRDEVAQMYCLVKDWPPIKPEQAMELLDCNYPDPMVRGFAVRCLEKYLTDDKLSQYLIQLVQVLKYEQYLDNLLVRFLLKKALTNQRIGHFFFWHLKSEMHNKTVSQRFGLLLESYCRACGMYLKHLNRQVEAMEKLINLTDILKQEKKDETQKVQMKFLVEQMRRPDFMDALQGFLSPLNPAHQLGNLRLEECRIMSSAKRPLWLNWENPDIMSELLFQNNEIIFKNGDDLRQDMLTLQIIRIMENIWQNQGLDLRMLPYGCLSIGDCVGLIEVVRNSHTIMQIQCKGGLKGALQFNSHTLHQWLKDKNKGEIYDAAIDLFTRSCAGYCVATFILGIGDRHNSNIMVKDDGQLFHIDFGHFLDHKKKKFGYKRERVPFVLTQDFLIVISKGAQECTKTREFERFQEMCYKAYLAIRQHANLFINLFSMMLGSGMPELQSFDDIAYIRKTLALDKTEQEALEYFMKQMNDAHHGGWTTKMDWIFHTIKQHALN
Chain of PI3K α (P27986 whole entry partner): as the sequence (P27986 whole entry partner) above
Chain of PI3K γ (P48736 whole entry): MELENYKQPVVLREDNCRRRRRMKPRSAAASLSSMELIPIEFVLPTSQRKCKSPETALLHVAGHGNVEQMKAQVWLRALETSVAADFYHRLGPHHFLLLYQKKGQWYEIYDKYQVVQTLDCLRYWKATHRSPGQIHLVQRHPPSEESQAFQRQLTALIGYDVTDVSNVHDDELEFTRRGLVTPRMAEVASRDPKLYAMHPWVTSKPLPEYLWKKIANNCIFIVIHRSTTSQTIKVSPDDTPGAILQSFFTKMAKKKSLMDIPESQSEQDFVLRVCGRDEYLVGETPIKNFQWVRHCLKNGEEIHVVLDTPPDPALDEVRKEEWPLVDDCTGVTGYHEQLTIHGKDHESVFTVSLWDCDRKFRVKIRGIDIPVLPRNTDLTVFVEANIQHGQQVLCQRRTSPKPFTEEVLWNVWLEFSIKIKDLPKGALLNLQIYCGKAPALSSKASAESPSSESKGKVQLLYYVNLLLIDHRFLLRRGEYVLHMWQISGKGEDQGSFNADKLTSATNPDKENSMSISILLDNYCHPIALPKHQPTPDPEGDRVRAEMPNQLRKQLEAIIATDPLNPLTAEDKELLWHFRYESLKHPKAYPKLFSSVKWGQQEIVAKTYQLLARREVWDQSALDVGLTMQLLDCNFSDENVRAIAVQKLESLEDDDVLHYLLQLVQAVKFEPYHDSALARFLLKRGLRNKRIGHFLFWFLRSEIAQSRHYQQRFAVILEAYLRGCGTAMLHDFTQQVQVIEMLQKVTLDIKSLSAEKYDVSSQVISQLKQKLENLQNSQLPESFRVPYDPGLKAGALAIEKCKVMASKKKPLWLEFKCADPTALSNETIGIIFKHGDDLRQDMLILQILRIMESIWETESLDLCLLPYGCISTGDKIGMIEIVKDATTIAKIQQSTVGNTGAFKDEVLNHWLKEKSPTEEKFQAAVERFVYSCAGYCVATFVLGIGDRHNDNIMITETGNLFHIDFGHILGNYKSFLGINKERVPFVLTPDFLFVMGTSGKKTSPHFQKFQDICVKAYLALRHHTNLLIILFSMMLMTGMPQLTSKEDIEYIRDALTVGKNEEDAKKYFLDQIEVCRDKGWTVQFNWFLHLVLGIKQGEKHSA

On to `CS(=O)(=O)N1CCN(C(=O)c2cnc3ccc(-c4ccc5oc(N)nc5c4)cn23)CC1`, for which the IC50 in test [1] was greater than 10 µM; in test [2], less than 1 µM; in test [3] it was less than 0.1 µM; in test [4] it was less than 10 µM.

In the case of `CN1CCN(C(=O)c2cnc3ccc(-c4ccc5nc(N)sc5c4)cn23)CC1`, the 50% inhibitory concentration (IC50) in test [1] is less than 10 µM; in test [2] it was greater than 10 µM; in test [3], less than 10 µM; in test [4], greater than 10 µM.

Turning to `Nc1nc2cc(-c3ccc4ncc(N5CCC(O)CC5)nc4c3)ccc2o1`, the half-maximal inhibitory concentration (IC50) in test [1] is less than 10 µM; in test [2], less than 1 µM; in test [3], less than 0.1 µM; in test [4], less than 1 µM.

On to `Nc1nc2cc(-c3ccc4ncc(N5CC(N6C7CCC6COC7)C5)nc4n3)ccc2o1`, for which the IC50 is greater than 10 µM in test [1], greater than 10 µM in test [2], less than 10 µM in test [3] and greater than 10 µM in test [4].

Regarding `Cn1cc(-c2cnc3ccc(-c4ccc5oc(N)nc5c4)cc3n2)cn1`, the half-maximal inhibitory concentration (IC50) in test [1] was less than 1 µM; in test [2], less than 0.1 µM; in test [3] it was less than 0.1 µM; in test [4] it was less than 10 µM.

As for `NCC(=O)N1CCN(c2cnc3ccc(-c4ccc5oc(N)nc5c4)cc3n2)CC1`, the IC50 in test [1] is less than 1 µM; in test [2], less than 1 µM; in test [3], less than 0.1 µM; in test [4] it was less than 1 µM.

`CC(=O)Nc1nc2ccc(-c3nc(N4CCOCC4)c4sc(CN5CCN(S(C)(=O)=O)CC5)cc4n3)cc2s1`: the 50% inhibitory concentration (IC50) in test [1], in test [2], in test [3] and in test [4] was greater than 10 µM each time.

On to `CCN1CCC(n2cnc3ccc(-c4ccc5oc(N)nc5c4)cc3c2=O)CC1`, for which the concentration for half-maximal inhibition (IC50) in test [1] was less than 10 µM; in test [2] it was greater than 10 µM; in test [3] it was less than 1 µM; in test [4] it was greater than 10 µM.

As for `CNC(=O)CN1CCN(c2cnc3ccc(-c4ccc5oc(N)nc5c4)cc3n2)CC1`, the IC50 in test [1] was less than 1 µM; in test [2], greater than 10 µM; in test [3], less than 0.1 µM; in test [4], less than 10 µM.

On to `Nc1nc2cc(-c3ccc4ncc(C(=O)N5CCS(=O)(=O)CC5)n4c3)ccc2o1`, for which the concentration for half-maximal inhibition (IC50) in test [1] was greater than 10 µM; in test [2] it was less than 10 µM; in test [3], less than 1 µM; in test [4], greater than 10 µM.

For the compound `CN1CCC(Nc2cnc3ccc(-c4ccc5oc(N)nc5c4)cc3n2)CC1`, the half-maximal inhibitory concentration (IC50) in test [1] is less than 1 µM; in test [2], less than 1 µM; in test [3] it was less than 0.1 µM; in test [4], less than 0.1 µM.

For `Nc1nc2cc(-c3cn4c(-c5ccncc5)cnc4cn3)ccc2o1`, the IC50 in test [1] was less than 10 µM; in test [2] it was less than 1 µM; in test [3], less than 0.1 µM; in test [4], less than 10 µM.

With `Nc1nsc2cc(-c3ccc4nccc(-c5ccncc5)c4c3)ccc12` [Compound 13], the IC50 is less than 1 µM in test [1], less than 1 µM in test [2], less than 0.1 µM in test [3] and less than 1 µM in test [4].

Regarding `Nc1nc2cc(-c3ccc4ncc(-c5ccccn5)nc4c3)ccc2o1`, the IC50 is less than 10 µM in test [1], less than 0.1 µM in test [2], less than 1 µM in test [3] and greater than 10 µM in test [4].

For the compound `C[C@@H]1CN(C(=O)c2cnc3ccc(-c4ccc5oc(N)nc5c4)cn23)C[C@H](C)O1`, the IC50 in test [1] was greater than 10 µM; in test [2] it was less than 10 µM; in test [3], less than 10 µM; in test [4], greater than 10 µM.

For the compound `C[C@@H]1CN(c2cnc3ccc(-c4ccc5oc(N)nc5c4)cc3n2)C[C@H](C)O1`, the 50% inhibitory concentration (IC50) in test [1] is greater than 10 µM; in test [2] it was less than 10 µM; in test [3] it was less than 1 µM; in test [4], greater than 10 µM.

As to `CC(=O)Nc1cn2cc(-c3ccc4nccc(-c5ccncc5)c4c3)ccc2n1` [Compound 19], the half-inhibitory concentration (IC50) in test [1], in test [2], in test [3] and in test [4] was greater than 10 µM throughout.

`Nc1nc2cc(-c3ccc4ncc(N5CCS(=O)(=O)CC5)nc4c3)ccc2o1`: the IC50 in test [1] was greater than 10 µM; in test [2], less than 0.1 µM; in test [3], less than 0.1 µM; in test [4], greater than 10 µM.
